Eight molecules from ChEMBL document CHEMBL1201862, “PubChem BioAssay data set” (2004) can be followed below.

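Dose response: 5 concentrations. Exposure: 48 h. Format: 96-well plates. Endpoint: linear interpolation; highest concentration if not reached. GI50 marks 50% less growth.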 Active and inactive are the calls of the source. Rule as the data show it: active = GI50 up to about 1.1 µM and inactive = higher.

Test systems include T47D; HT-29; KM12; HOP-92; OVCAR-4; RPMI-8226; SK-MEL-2; SF-539; SNB-19; NCI-H226; SR; SNB-75; RXF 393; 786-0; NCI-H522; Hs-578T; COLO 205; K562; OVCAR-8; SN12C.
Holding throughout (assay): NCI tumour cell line growth inhibition, 48 h

As for `CCC1(O)CC2CC(=O)OC2C1O` (stereo not given), the GI50 in the experiment on T47D, in the experiment with HT-29, in the experiment with KM12, with HOP-92, with OVCAR-4 and with RPMI-8226 was > 100 µM (inactive) throughout. The GI50 in the experiment on SK-MEL-2, with SF-539, in the experiment with SNB-19, in the experiment on NCI-H226, in the experiment on SR and in the experiment with SNB-75 was > 100 µM (inactive) throughout. Further, the GI50 in the experiment with RXF 393, with 786-0, in the experiment on NCI-H522, with Hs-578T, in the experiment on COLO 205 and in the experiment on K562 was > 100 µM (inactive) throughout. Besides, in the experiment on OVCAR-8, the GI50 is > 100 µM (inactive).
In the case of `C[Si](C)(C)CCOCN(C(=O)C1=CCC2(CC1)OCCO2)c1ccccc1I`, the GI50 in the experiment on T47D was 12.8 µM (inactive); with HT-29, 34.3 µM (inactive); in the experiment with KM12, 18.7 µM (inactive); in the experiment with HOP-92, 0.121 µM (active); in the experiment with OVCAR-4, 21.1 µM (inactive); in the experiment with SN12C it was 28.1 µM (inactive). The GI50 with RPMI-8226 was 11.9 µM (inactive); in the experiment on SK-MEL-2, 17.5 µM (inactive); with SF-539 it was 22.1 µM (inactive); with SNB-19, 19.2 µM (inactive); in the experiment on NCI-H226 it was 22.9 µM (inactive); in the experiment on SR it was 15.8 µM (inactive). In addition, the GI50 with SNB-75 is 17.7 µM (inactive); in the experiment with RXF 393, 17.5 µM (inactive); in the experiment with 786-0 it was 17.7 µM (inactive); with NCI-H522, 21.1 µM (inactive); with Hs-578T it was 15.8 µM (inactive); with COLO 205 it was 37.4 µM (inactive). The results for the GI50 in the experiment on K562 and with OVCAR-8 were 8.02 µM (inactive) and 32.5 µM (inactive), respectively.
In the case of `O=c1[nH]c2nc3ccccc3c(=O)n2/c1=C/c1ccc(O)cc1`, the GI50 in the experiment with T47D was 42.2 µM (inactive); with HT-29 it was 24 µM (inactive); in the experiment with KM12, 29.6 µM (inactive); with HOP-92, 49.5 µM (inactive); with OVCAR-4 it was > 100 µM (inactive); in the experiment with SN12C, 30.6 µM (inactive). In addition, the GI50 in the experiment with RPMI-8226 was 16.9 µM (inactive); with SK-MEL-2 it was 75.3 µM (inactive); in the experiment with SF-539, 21.3 µM (inactive); in the experiment on SNB-19, 21 µM (inactive); in the experiment with NCI-H226 it was 38.7 µM (inactive); in the experiment with SR, 16.9 µM (inactive). Moreover, the GI50 with SNB-75 was 23.8 µM (inactive); with RXF 393 it was 40.2 µM (inactive); in the experiment with 786-0 it was 34.8 µM (inactive); in the experiment on NCI-H522, 23.2 µM (inactive); in the experiment with Hs-578T, 18.6 µM (inactive); in the experiment on COLO 205 it was 43.9 µM (inactive). In addition, the GI50 in the experiment on OVCAR-8 is 22 µM (inactive).
For the molecule `COc1ccc2nc3cc(Cl)ccc3c(NCCCN(CCCl)CCCl)c2c1`, the GI50 with T47D was < 0.01 µM (active); in the experiment with HT-29, 0.0119 µM (active); with KM12, 0.052 µM (active); with HOP-92 it was 0.0126 µM (active); in the experiment with OVCAR-4 it was 0.0845 µM (active); with SN12C, 0.014 µM (active). In addition, the GI50 with RPMI-8226 is < 0.01 µM (active); in the experiment with SK-MEL-2, 0.14 µM (active); in the experiment with SF-539 it was 0.0111 µM (active); with SNB-19, 0.0225 µM (active); in the experiment with NCI-H226, 0.0385 µM (active); in the experiment with SR, < 0.01 µM (active). Besides, the GI50 was 0.177 µM (active) in the experiment with SNB-75; 0.0107 µM (active) with RXF 393; 0.0101 µM (active) in the experiment on 786-0; 0.0105 µM (active) with NCI-H522; 0.0328 µM (active) with Hs-578T; < 0.01 µM (active) in the experiment with COLO 205. Besides, the GI50 is 0.0123 µM (active) with K562 and 0.0125 µM (active) in the experiment on OVCAR-8.
As to `COC(=O)c1sc2c(c1C(=O)OC)/C(=N/c1ccc(OC)cc1)S/C2=N\c1ccc(OC)cc1`, the GI50 in the experiment on T47D is 0.982 µM (active); in the experiment on HT-29, 0.522 µM (active); in the experiment with KM12 it was 1.22 µM (inactive); with HOP-92 it was 1.51 µM (inactive); with OVCAR-4, 1.35 µM (inactive); in the experiment with SN12C, 0.644 µM (active). Besides, the GI50 with RPMI-8226 was 0.275 µM (active); with SK-MEL-2, 0.624 µM (active); with SF-539, 0.274 µM (active); in the experiment with SNB-19, 1.52 µM (inactive); with NCI-H226 it was 1.74 µM (inactive); in the experiment on SR, 0.485 µM (active). Moreover, the GI50 with SNB-75 was 0.787 µM (active); in the experiment on RXF 393, 0.47 µM (active); in the experiment on 786-0, 0.426 µM (active); in the experiment on NCI-H522, 0.541 µM (active); in the experiment with Hs-578T, 1.5 µM (inactive); with COLO 205, 0.7 µM (active). The GI50 with K562 was 0.389 µM (active); in the experiment on OVCAR-8, 0.944 µM (active).
Regarding `Cc1cc2ccc(N)nc2nc1O`, the GI50 with T47D, in the experiment on HT-29, in the experiment on KM12, in the experiment with HOP-92, in the experiment on SN12C and with RPMI-8226 was > 100 µM (inactive) in each case. The GI50 in the experiment on SK-MEL-2 was > 100 µM (inactive); in the experiment with SF-539, > 100 µM (inactive); with SNB-19, > 100 µM (inactive); with NCI-H226, 51.6 µM (inactive); in the experiment on SR it was > 100 µM (inactive); in the experiment with SNB-75 it was > 100 µM (inactive). In addition, the GI50 is > 100 µM (inactive) in the experiment with RXF 393; > 100 µM (inactive) in the experiment on 786-0; 49.2 µM (inactive) in the experiment on NCI-H522; > 100 µM (inactive) in the experiment on Hs-578T; > 100 µM (inactive) in the experiment on COLO 205; > 100 µM (inactive) with OVCAR-8.
With `O=[N+]([O-])c1ccc2c(c1)N=C1OC(c3c[nH]c4ccc(COc5ccccc5)cc34)C(O)=C1N2` (stereo not given), the GI50 in the experiment on T47D, with HT-29, in the experiment on KM12, in the experiment with HOP-92, with OVCAR-4 and in the experiment on SN12C was > 100 µM (inactive) each time. Besides, the GI50 in the experiment on RPMI-8226 is > 100 µM (inactive); in the experiment with SK-MEL-2, > 100 µM (inactive); in the experiment on SF-539 it was > 100 µM (inactive); with SNB-19, > 100 µM (inactive); in the experiment with NCI-H226, > 100 µM (inactive); with SR, 7.71 µM (inactive). In addition, the GI50 in the experiment on SNB-75 is 25.1 µM (inactive); in the experiment on RXF 393, > 100 µM (inactive); in the experiment with 786-0, 53.8 µM (inactive); in the experiment with NCI-H522 it was 17.3 µM (inactive); in the experiment on Hs-578T it was > 100 µM (inactive); with COLO 205 it was 23.2 µM (inactive). The figures for the GI50 with K562 and in the experiment on OVCAR-8 were 3.73 µM (inactive) and > 100 µM (inactive), respectively.
For the molecule `O=C(/C=C/c1ccc(/C=C/C(=O)c2ccc(O)cc2)cc1)c1ccc(O)cc1`, the GI50 in the experiment on T47D was > 100 µM (inactive); with HT-29 it was 58.1 µM (inactive); in the experiment on KM12, > 100 µM (inactive); in the experiment with HOP-92, > 100 µM (inactive); with SN12C it was > 100 µM (inactive); in the experiment with RPMI-8226, > 100 µM (inactive). Further, the GI50 in the experiment with SK-MEL-2, with SF-539, in the experiment on SNB-19, with NCI-H226, in the experiment on SR and with SNB-75 was > 100 µM (inactive) in each case. The GI50 is > 100 µM (inactive) in the experiment with RXF 393; 74 µM (inactive) with 786-0; > 10 µM (inactive) with NCI-H522; > 100 µM (inactive) in the experiment on Hs-578T; > 100 µM (inactive) with COLO 205; > 100 µM (inactive) in the experiment on K562. The GI50 in the experiment on OVCAR-8 is > 100 µM (inactive).
